The results in this text go back to patent US9321809B2, “Macrocyclic compounds for suppressing replication of hepatitis C virus” (Ginkgo Pharma Co., Ltd., priority 2012, dated 2016).

Where two headings read alike, the source gives them in different places.

The subject of data set [1] is HCV replicon-containing huh-7 cells (replicon 1b). Put plainly: HCV Replicon Assay (luciferase readout). Format: cell-based. Conditions: Hepatitis C virus; HCV replicon 1b in huh-7 cells, 48 h incubation, 1% DMSO, luciferase signal; read-out: EC50 (EC 50 on replicon 1b). Here is the method:
Compounds of formuala (I) are tested for the ability to inhibit viral replication of the Hepatitis C viruses by the following in vitro assays.
DMEM (Life Technologies #41965-039) was supplemented with 10% FBS, 2 mM L-glutamine (Life Technologies #25030-024), penicillin (100 units/ml)/streptomycin (100 micrograms/ml) (Life Technologies #15140-114), 1× non-essential amino acids (Life Technologies #11140-035).
Complete media was prepared by mixing FBS, DMEM media with Geneticin (G418). The compete media was preincubated at 37° C. in a CO2 incubator. Then, HCV replicon-containing huh-7 cells (V. Lohmann et. al. Science, 285, (1999)110-113) was taken out from 37° C. incubator. The residual medium was absorbed, and the cells were washed with PBS. After washing fluid was removed, 1 ml 0.25% trypsin/0.02% EDTA solution. The cells were washed by the above trypsin/EDTA solution to make sure that each cell was cleaned. After the trypsin/EDTA solution was absorbed, the mixture was incubated at 37° C. in a CO2 incubator for 3-5 minutes. Morphological changes were observed by inverted microscope, till the cells were detached from the wall of container completely.
3 ml of complete media was added to make the cells to suspend. The cells are counted with hematometer. Appropriate volumes of the complete media was added to adjust the cell density to 100,000/ml. Cells were plated with 100 μl of suspension at 10,000/well of 96 well plate. Plates were placed into 37° C. 5% CO2 incubator for 24 h.
Preparation of Drug Solution:
Drugs were diluted under aseptic conditions.
Stock solutions may be prepared before the assay, which means that the test compounds are dissolved in 100% DMSO to afford a final concentration of 2 mM. Before the 96 well culture was completed, the stock solution was diluted with culter media to 100 fold of the final concentration (100× solution).
96-well plates were taken out from 37° C. CO2 incubator and morphological changes were observed by inverted microscope. In a ventilator, 1 μl of 100× drug solution was added to wells of 96 well plate until the final concentration of DMSO in the mixture is 1%. The plates were incubated at 37° C. in a CO2 environment for 48 h. 30 μl of Stead-G1® Luciferase Assay System (bought from Promega) was added to each well of 96 well plates and each plate is shaken in a plate shaker for 5 minutes to ensure cells cleavaged completely. The fluorescence signal was quantitated in a Perkin-Elmer plate reader (Envision) and integral time was setted to be 2 second. The following data were achieved after recording and analyzing the data.

Data set [2] can be described thus: liver microsome metabolity assay (PK Assays). Type of data set: in vitro ADME, human. Conditions: pH 7.4. The procedure: The following liver microsome metabolity assays validated the PK properties of compounds of Formula (I). 1. Buffer A: 1.0 L 0.1 M potassium phosphate monobasic buffer (including 1.0 mM EDTA); Buffer B: 1.0 L 0.1 M dipotassium phosphate buffer (including 1.0 mM EDTA); Buffer C: 0.1 M potassium phosphate buffer (including 1.0 mM EDTA), pH 7.4, add Buffer A to 700 ml of Buffer B until pH is 7.4. 2. Drug solution: 500 μM solution: a 10 μL (10 mM) DMSO was added to 190 μL ACN; 1.5 μM solution (dissolved in human microsome and the final concentration of microsome is 0.75 mg/mL): 1.5 μL (500 μM) of drug solution and 18.75 μL of human microsome (20 mg/mL) were added to 479.75 uL of Buffer C. 3. NADPH solution (6 mM, dissolved in Buffer C). 4. 30 µL of drug solution (1.5 μM) was added to a 96-well plate, setting locations for different time points; Preincubated for 10 minutes at 37° C. 5. […] of NADPH (6 mM) was added to the location for 45-min time point; and timing started. 6. At 30, 15 and 5 min, […] of NADPH (6 mM) was added to each corresponding locations, respectively. 7. After the reaction was completed mins), 135 μL acetonitrile was added to the locations for all different time points; 15 µL of NADPH (6 mM) was added to the location for 0 min time point. 8. Centrifugated at 3220 g for 10 min. 9. 50 μL of supernatant was collected and mixed with 50 μL, of ultrapure water. Samples were sent to LC/MS for analysis.

As for `C=C[C@@H]1C[C@]1(NC(=O)[C@@H]1C[C@@H]2CN1C(=O)[C@H](C1CCCCC1)NC(=O)[C@@H](NC(=O)OC(C)(C)C)COC/C=C/c1cc3c(nccc3cc1OC)O2)C(=O)NS(=O)(=O)C1CC1` [Compound IIb-3, tert-butyl N-[(3R,5S,8S,11S,15E)-8-cyclohexyl-5-{[(1R,2S)-1-[(cyclopropanesulfonyl)carbamoyl]-2-ethenylcyclopropyl]carbamoyl}-18-methoxy-7,10-dioxo-2,13-dioxa-6,9,23-triazatetracyclo[15.6.2.1^3,6.0^20,24]hexacosa-1(23),15,17(25),18,20(24),21-hexaen-11-yl]carbamate], the EC50 in data set [1] was less than 10 nM. In data set [2] (human, microsomes), the half-life at 1 µM is 3.83 h. The like results for `C=C[C@@H]1C[C@]1(NC(=O)[C@@H]1C[C@@H]2CN1C(=O)[C@H](C1CCCCC1)NC(=O)[C@@H](NC(=O)OC(C)(C)C)COC/C=C/c1cccc3c1CN(C3)C(=O)O2)C(=O)NS(=O)(=O)C1CC1` [Compound IIa-16, tert-butyl N-[(1R,12E,17S,20S,23S)-20-cyclohexyl-23-{[(1R,2S)-1-[(cyclopropanesulfonyl)carbamoyl]-2-ethenylcyclopropyl]carbamoyl}-3,18,21-trioxo-2,15-dioxa-4,19,22-triazatetracyclo[20.2.1.1^4,7.0^6,11]hexacosa-6,8,10,12-tetraen-17-yl]carbamate] were, in that order, less than 10 nM and 3.22 h. Consider `C=C[C@@H]1C[C@]1(NC(=O)[C@@H]1C[C@@H]2CN1C(=O)[C@H](C(C)(C)C)NC(=O)[C@@H](NC(=O)OC(C)(C)C)COC/C=C/c1cccc3c1CN(C3)C(=O)O2)C(=O)NS(=O)(=O)C1CC1` [Compound IIa-1, tert-butyl N-[(1R,12E,17S,20S,23S)-20-tert-butyl-23-{[(1R,2S)-1-[(cyclopropanesulfonyl)carbamoyl]-2-ethenylcyclopropyl]carbamoyl}-3,18,21-trioxo-2,15-dioxa-4,19,22-triazatetracyclo[20.2.1.1^4,7.0^6,11]hexacosa-6,8,10,12-tetraen-17-yl]carbamate], for which, in data set [1], the EC50 is less than 10 nM. Further, the half-life at 1 µM in data set [2] (human, microsomes) came out at 3.3 h. `C=C[C@@H]1C[C@]1(NC(=O)[C@@H]1C[C@@H]2CN1C(=O)[C@H](C(C)(C)C)NC(=O)[C@@H](NC(=O)OCC)COC/C=C/c1cccc3c1CN(C3)C(=O)O2)C(=O)NS(=O)(=O)C1CC1` [Compound IIa-9, ethyl N-[(1R,12E,17S,20S,23S)-20-tert-butyl-23-{[(1R,2S)-1-[(cyclopropanesulfonyl)carbamoyl]-2-ethenylcyclopropyl]carbamoyl}-3,18,21-trioxo-2,15-dioxa-4,19,22-triazatetracyclo[20.2.1.1^4,7.0^6,11]hexacosa-6,8,10,12-tetraen-17-yl]carbamate]: the EC50 in data set [1] is 10 to 50 nM. Same read-out and setting: the figure for `CC[C@@H]1C[C@]1(NC(=O)[C@@H]1C[C@@H]2CN1C(=O)[C@H](C1CCCCC1)NC(=O)[C@@H](NC(=O)OC(C)(C)C)COCCCc1cccc3c1CN(C3)C(=O)O2)C(=O)NS(=O)(=O)C1CC1` [Compound IIa-18, tert-butyl N-[(1R,17S,20S,23S)-20-cyclohexyl-23-{[(1R,2R)-1-[(cyclopropanesulfonyl)carbamoyl]-2-ethylcyclopropyl]carbamoyl}-3,18,21-trioxo-2,15-dioxa-4,19,22-triazatetracyclo[20.2.1.1^4,7.0^6,11]hexacosa-6,8,10-trien-17-yl]carbamate] is 10 to 50 nM. On to `C=C[C@@H]1C[C@]1(NC(=O)[C@@H]1C[C@@H]2CN1C(=O)[C@H](C(C)(C)C)NC(=O)[C@@H](NC(=O)NC(C)(C)C)COC/C=C/c1cccc3c1CN(C3)C(=O)O2)C(=O)NS(=O)(=O)C1CC1` [Compound IIa-12, (1R,12E,17S,20S,23S)-20-tert-butyl-17-[(tert-butylcarbamoyl)amino]-N-[(1R,2S)-1-[(cyclopropanesulfonyl)carbamoyl]-2-ethenylcyclopropyl]-3,18,21-trioxo-2,15-dioxa-4,19,22-triazatetracyclo[20.2.1.1^4,7.0^6,11]hexacosa-6,8,10,12-tetraene-23-carboxamide], for which the 50% effective concentration (EC50) in data set [1] was less than 10 nM. With `CC[C@@H]1C[C@]1(NC(=O)[C@@H]1C[C@@H]2CN1C(=O)[C@H](C(C)(C)C)NC(=O)OCC(C)(C)CCCCc1cccc3c1CN(C3)C(=O)O2)C(=O)NS(=O)(=O)C1CC1` [MK7009, reference compound], the EC50 in data set [1] was less than 10 nM. Also, in data set [2] (human liver microsomes, human microsome 0.75 mg/mL, 1.5 μM drug solution, NADPH, 37° C., time points 0-45 min, LC/MS, read-out: t1/2), the half-life at 1 µM was determined as 0.433 h.
